Where two headings read alike, the source gives them in different places.
Legend:
NAMPT = target: T1, NAMPT (Homo sapiens, UniProt P43490); test: NAMPT Activity Assay (Abcam #ab221819); format: biochemical; settings: purified NAMPT, two-step reaction, OD450 nm; percent inhibition vs no drug; compound concentration not stated
T1 construct: purchased Abcam ab221819

MV-4-11 cells = test: Cell viability in MV-4-11 cells (CellTiter Glo2); format: cell-based; settings: Homo sapiens, MV4-11, 96 h, 8-point dose response, 4 days
Protocol: Approximately 10,000 MV-4-11 cells per well of a 96-well plate were treated with DMSO (no drug control) or each compound in Tables E1 and E2 in an 8-point dose response for 4 days, Cell viability was measured using CellTiter Glo2. The ICse of each compound was determined using CDD Vault.

[1] = CellTiter Glo2 (Table E2), read-out: MV-4-11 Cell Viability, MV-4-11 IC50
[2] = CellTiter Glo2 (Table E1), read-out: MV-4-11 IC50

T1 sequence (P43490 whole entry): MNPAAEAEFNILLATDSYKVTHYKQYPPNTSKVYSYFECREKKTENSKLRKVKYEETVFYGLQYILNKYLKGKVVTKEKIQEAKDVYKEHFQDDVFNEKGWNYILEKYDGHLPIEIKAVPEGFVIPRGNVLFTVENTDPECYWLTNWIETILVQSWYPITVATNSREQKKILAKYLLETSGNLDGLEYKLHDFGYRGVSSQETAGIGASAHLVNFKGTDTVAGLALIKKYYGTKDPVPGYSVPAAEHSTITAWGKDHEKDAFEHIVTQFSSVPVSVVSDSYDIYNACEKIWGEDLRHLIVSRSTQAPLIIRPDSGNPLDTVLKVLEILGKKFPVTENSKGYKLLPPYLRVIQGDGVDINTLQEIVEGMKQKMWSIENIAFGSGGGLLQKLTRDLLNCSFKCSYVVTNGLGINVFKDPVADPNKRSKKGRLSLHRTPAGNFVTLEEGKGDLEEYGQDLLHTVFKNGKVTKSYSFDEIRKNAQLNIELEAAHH

| SMILES | NAMPT Inhibition Code (NAMPT) | IC50 (MV-4-11 cells; [1]) | IC50 (MV-4-11 cells; [2]) |
| --- | --- | --- | --- |
| CC(=O)N(CC1CC1)c1ccc(-c2ccc(C(=O)NCc3ccnc(N)c3)cn2)cc1Cl [Compound I-674, 6-[4-[Acetyl(cyclopropylmethyl)amino]-3-chloro-phenyl]-N-[(2-amino-4-pyridyl)methyl]pyridine-3-carboxamide] | B (B = ≥33 to <66% inhibition) | 350 nM | – |
| CCCN(C(C)=O)c1ccc(-c2ccc(C(=O)NCc3cccnc3)cn2)cc1Cl [Compound I-606, 6-[4-[Acetyl(propyl)amino]-3-chloro-phenyl]-N-(3-pyridylmethyl)pyridine-3-carboxamide] | C (C = ≥66% inhibition) | 21.1 nM | – |
| CC(=O)N(CC1CC1)c1ccc(-c2ccc(C(=O)Nc3ccncc3)cn2)cc1Cl [Compound I-684, 6-[4-[Acetyl(cyclopropylmethyl)amino]-3-chloro-phenyl]-N-(4-pyridyl)pyridine-3-carboxamide] | A (A = <33% inhibition) | 341 nM | – |
| CCC(=O)N(C)c1ccc(-c2ccc(C(=O)N(C)Cc3cccnc3)cn2)cc1C [Compound I-496, N-methyl-6-[3-methyl-4-[methyl(propanoyl)amino]phenyl]-N-(3-pyridylmethyl)pyridine-3-carboxamide] | A (A = <33% inhibition) | > 15800 nM | – |
| CC(=O)N(CC1CC1)c1ccc(-c2ccc(C(=O)NCc3ccc(C)nc3C)cn2)cc1C [Compound I-489, 6-[4-[Acetyl(cyclopropylmethyl)amino]-3-methyl-phenyl]-N-[(2,6-dimethyl-3-pyridyl)methyl]pyridine-3-carboxamide] | A (A = <33% inhibition) | 2220 nM | – |
| CC(=O)N(CC1CC1)c1ccc(-c2ccc(C(=O)Nc3cccnc3)cn2)cc1Cl [Compound I-683, 6-[4-[Acetyl(cyclopropylmethyl)amino]-3-chloro-phenyl]-N-(3-pyridyl)pyridine-3-carboxamide] | C (C = ≥66% inhibition) | > 997 nM | – |
| CC(=O)N(CC1CC1)c1ccc(-c2ccc(C(=O)NCc3cccnc3)cn2)cc1 [Compound I-421, 6-[4-[acetyl(cyclopropylmethyl)amino]phenyl]-N-(3-pyridylmethyl)pyridine-3-carboxamide] | B (B = ≥33 to <66% inhibition) | – | 117 nM |
| CC(=O)N(CC1CC(F)(F)C1)c1ccc(-c2ccc(C(=O)NCc3cccnc3C)cn2)cc1 [Compound I-517, 6-[4-[Acetyl-[(3,3-difluorocyclobutyl)methyl]amino]phenyl]-N-[(2-methyl-3-pyridyl)methyl]pyridine-3-carboxamide] | A (A = <33% inhibition) | 2440 nM | – |
| CCCN(C(C)=O)c1ccc(-c2ccc(C(=O)NCc3cccnc3C)cn2)cc1Cl [Compound I-458, 6-[4-[acetyl(propyl)amino]-3-chloro-phenyl]-N-[(2-methyl-3-pyridyl)methyl]pyridine-3-carboxamide] | A (A = <33% inhibition) | 1710 nM | – |
| COC(=O)NCCC(=O)N(C)c1ccc(-c2ccc(C(=O)NCc3cccnc3C)cn2)cc1C [Compound I-501, Methyl N-[3-[N,2-dimethyl-4-[5-[(2-methyl-3-pyridyl)methylcarbamoyl]-2-pyridyl]anilino]-3-oxo-propyl]carbamate] | A (A = <33% inhibition) | 1830 nM | – |
| COC(=O)c1cc(-c2ccc(C(=O)NCc3cccnc3C)cn2)ccc1N(C)C(C)=O [Compound I-457, methyl 2-[acetyl(methyl)amino]-5-[5-[(2-methyl-3-pyridyl)methylcarbamoyl]-2-pyridyl]benzoate] | A (A = <33% inhibition) | 9850 nM | – |
| CCOC(=O)NCCN(C(C)=O)c1ccc(-c2ccc(C(=O)NCc3cccnc3C)cn2)cc1C [Compound I-486, Ethyl N-[2-[N-acetyl-2-methyl-4-[5-[(2-methyl-3-pyridyl)methylcarbamoyl]-2-pyridyl]anilino]ethyl]carbamate] | A (A = <33% inhibition) | 2700 nM | – |
| CCN(C(C)=O)c1ccc(-c2ccc(C(=O)NCc3cccnc3C)cn2)cc1Cl [Compound I-444, 6-[4-[acetyl(ethyl)amino]-3-chloro-phenyl]-N-[(2-methyl-3-pyridyl)methyl]pyridine-3-carboxamide] | A (A = <33% inhibition) | – | 1820 nM |
| CC(=O)N(CC(F)F)c1ccc(-c2ccc(C(=O)NCc3cccnc3)cn2)cc1Cl [Compound I-619, 6-[4-[Acetyl(2,2-difluoroethyl)amino]-3-chloro-phenyl]-N-(3-pyridylmethyl)pyridine-3-carboxamide] | C (C = ≥66% inhibition) | 67.2 nM | – |
| CC(=O)N(C)c1ccc(-c2ccc(C(=O)NCc3cccnc3C)cn2)cc1C#N [Compound I-456, 6-[4-[acetyl(methyl)amino]-3-cyano-phenyl]-N-[(2-methyl-3-pyridyl)methyl]pyridine-3-carboxamide] | A (A = <33% inhibition) | > 30000 nM | – |
| Cc1cc(-c2ccc(C(=O)NCc3cccnc3)cn2)ccc1N(C)C(=O)CCN [Compound I-593, 6-[4-[3-aminopropanoyl(methyl)amino]-3-methyl-phenyl]-N-(3-pyridylmethyl)pyridine-3-carboxamide] | A (A = <33% inhibition) | 1470 nM | – |
| CC(=O)N(CC1COC1)c1ccc(-c2ccc(C(=O)NCc3cccnc3)cn2)cc1Cl [Compound I-620, 6-[4-[Acetyl(oxetan-3-ylmethyl)amino]-3-chloro-phenyl]-N-(3-pyridylmethyl)pyridine-3-carboxamide] | C (C = ≥66% inhibition) | 8.11 nM | – |
| CC(=O)N(CC1COC1)c1ccc(-c2ccc(C(=O)NCc3cccnc3C)cn2)cc1C [Compound I-510, 6-[4-[Acetyl(oxetan-3-ylmethyl)amino]-3-methyl-phenyl]-N-[(2-methyl-3-pyridyl)methyl]pyridine-3-carboxamide] | A (A = <33% inhibition) | 5910 nM | – |
| CCCN(C(C)=O)c1ccc(-c2ccc(C(=O)NCc3cccnc3C)cn2)cc1C [Compound I-446, 6-[4-[acetyl(propyl)amino]-3-methyl-phenyl]-N-[(2-methyl-3-pyridyl)methyl]pyridine-3-carboxamide] | A (A = <33% inhibition) | – | 2170 nM |
| CCC(=O)N(C)c1ccc(-c2ccc(C(=O)NCc3ccc(OC)nc3)cn2)cc1 [Compound I-397, N-[(6-methoxy-3-pyridyl)methyl]-6-[4-[methyl(propanoyl)amino]phenyl]pyridine-3-carboxamide] | B (B = ≥33 to <66% inhibition) | – | 13800 nM |
| CC(=O)N(CC1COC1)c1ccc(-c2ccc(C(=O)NCc3cccnc3)cn2)cc1C [Compound I-610, 6-[4-[Acetyl(oxetan-3-ylmethyl)amino]-3-methyl-phenyl]-N-(3-pyridylmethyl)pyridine-3-carboxamide] | B (B = ≥33 to <66% inhibition) | 37 nM | – |
| CC(=O)N(CC1CC1)c1ccc(-c2ccc(C(=O)NCc3cncc(F)c3)cn2)cc1Cl [Compound I-690, 6-[4-[Acetyl(cyclopropylmethyl)amino]-3-chloro-phenyl]-N-[(5-fluoro-3-pyridyl)methyl]pyridine-3-carboxamide] | C (C = ≥66% inhibition) | 336 nM | – |
| CC(=O)N(CC(C)C)c1ccc(-c2ccc(C(=O)NCc3cccnc3C)cn2)cc1C [Compound I-454, 6-[4-[acetyl(isobutyl)amino]-3-methyl-phenyl]-N-[(2-methyl-3-pyridyl)methyl]pyridine-3-carboxamide] | A (A = <33% inhibition) | 2140 nM | – |
| CC(=O)N(CC1CC(F)(F)C1)c1ccc(-c2ccc(C(=O)NCc3cccnc3)cn2)cc1C [Compound I-600, 6-[4-[Acetyl-[(3,3-difluorocyclobutyl)methyl]amino]-3-methyl-phenyl]-N-(3-pyridylmethyl)pyridine-3-carboxamide] | B (B = ≥33 to <66% inhibition) | 20.6 nM | – |
| CC(=O)N(CC(C)C)c1ccc(-c2ccc(C(=O)NCc3cccnc3)cn2)cc1Cl [Compound I-599, 6-[4-[Acetyl(isobutyl)amino]-3-chloro-phenyl]-N-(3-pyridylmethyl)pyridine-3-carboxamide] | C (C = ≥66% inhibition) | 3.28 nM | – |
| CC(=O)N(c1ccc(-c2ccc(C(=O)NCc3cccnc3)cc2)cc1C)C(C)C [Compound I-624, 4-[4-[Acetyl(isopropyl)amino]-3-methyl-phenyl]-N-(3-pyridylmethyl)benzamide] | B (B = ≥33 to <66% inhibition) | 40 nM | – |
| CC(=O)N(CC1CC(F)(F)C1)c1ccc(-c2ccc(C(=O)NCc3cccnc3)cn2)cc1Cl [Compound I-603, 6-[4-[Acetyl-[(3,3-difluorocyclobutyl)methyl]amino]-3-chloro-phenyl]-N-(3-pyridylmethyl)pyridine-3-carboxamide] | C (C = ≥66% inhibition) | < 5.89 nM | – |
| CCC(=O)N(C)c1ccc(-c2ccc(C(=O)NCc3ccc(OC)nc3)cn2)cc1C [Compound I-451] | B (B = ≥33 to <66% inhibition) | 5370 nM | – |
| CC(=O)CC(=O)N(c1ccc(-c2ccc(C(=O)NCc3cccnc3C)cn2)cc1C)C(C)C [Compound I-497, 6-(4-(N-isopropyl-3-oxobutanamido)-3-methylphenyl)-N-((2-methylpyridin-3-yl)methyl)nicotinamide] | A (A = <33% inhibition) | 5720 nM | – |
| COC(=O)NCCN(C(C)=O)c1ccc(-c2ccc(C(=O)NCc3cccnc3C)cn2)cc1C [Compound I-487, Methyl N-[2-[N-acetyl-2-methyl-4-[5-[(2-methyl-3-pyridyl)methylcarbamoyl]-2-pyridyl]anilino]ethyl]carbamate] | A (A = <33% inhibition) | 4350 nM | – |
